The values below come from PubChem BioAssay (NCI).

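Cells were grown in 96-well plates and exposed to each compound for 48 hours at five concentrations; endpoints were interpolated linearly between bracketing concentrations, or set to the highest concentration if not reached. Here, GI50 denotes the concentration required for 50% inhibition of growth. TGI is the concentration that stops growth completely.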

Holding throughout (experiment): NCI anticancer screen, dose series, 48 h
Experiment [1] concerns T-47D breast.
Experiment [2] relates to OVCAR-5 ovarian.
Experiment [3] deals with COLO 205 colon.
Experiment [4] relates to TK-10 renal.
In experiment [5] the test system is U251 CNS.
In experiment [6] the test system is HT29 colon.
For experiment [7], the system named is SF-295 CNS.
For experiment [8], the system named is OVCAR-4 ovarian.
The subject of experiment [9] is CAKI-1 renal.
For experiment [10], the system named is HOP-62 NSCLC.

Take `CCCCCCC/C=C/[C@H]1O[C@]2(O)C(=O)C=C3C[C@@H](O[C@@H]4O[C@H](CO)[C@@H](O)C(O)[C@@H]4O)C[C@@H]3[C@H]2C=C1C` (some centres not stated): the GI50 in [1] is 0.919 µM; in experiment [2], 4.74 µM; in experiment [3], 5.56 µM; in experiment [4] it was 5.51 µM; in [5] it was 1.1 µM; in [6] it was 4.13 µM. Besides, the results for the GI50 in experiment [7] and in experiment [8] were 3.87 µM and 2.75 µM, respectively. In addition, the TGI was determined as 5.34 µM in experiment [1]; 10.8 µM in experiment [2]; 11.8 µM in [3]; 11 µM in [4]; 4.49 µM in [5]; 10 µM in experiment [6]. Moreover, the TGI in [7] was found to be 8.79 µM; in experiment [8], 7.83 µM.

Regarding `CC(C)=CCC1=C(OCC(=O)O)C(=O)c2ccccc2C1=O`, the TGI in experiment [1], in experiment [3], in experiment [4], in [5], in [9] and in experiment [6] was above 100 µM in each case. In addition, the TGI in experiment [10] was above 100 µM; in [7] it was 41.4 µM; in experiment [8], 99.1 µM.

As for `COc1cc2oc(-c3ccc(O)cc3O)c(CC=C(C)C)c(=O)c2c(O)c1/C=C/C(C)C`, the TGI in [1] amounted to 23.4 µM; in experiment [2], 18.7 µM; in [3], 10.3 µM; in [4], 14.1 µM; in [5], 6.12 µM; in [6], 5.74 µM. Also, the TGI in experiment [10] was determined as 5.93 µM; in [7] it was 12.3 µM; in [8] it was 8.44 µM.

Consider `CNc1cc2nc3cc(NC)c(C)cc3cc2cc1C`, for which the GI50 in [1] is 1.1 µM; in [2] it was 2.75 µM; in experiment [3], 0.64 µM; in experiment [4], 3.55 µM; in [9] it was 2.88 µM; in [6] it was 0.3 µM. For the same compound, the GI50 in experiment [10] was 1.3 µM; in [7] it was 1.41 µM; in [8] it was 1.03 µM. Moreover, the TGI in experiment [1] was 18.4 µM; in experiment [2], 20.2 µM; in experiment [3], 2.35 µM; in experiment [4], 16.2 µM; in [9], 17.1 µM; in experiment [6], 1.1 µM. In addition, the TGI in experiment [10] was 16 µM; in experiment [7], 13.2 µM; in [8], 3.26 µM.

For the compound `CC(C)(CCN=C(N)Nc1ccccn1)c1ccc(C(F)(F)F)cc1`, the GI50 in [1] is 11.1 µM; in [2] it was 15.8 µM; in experiment [3], 13.3 µM; in experiment [4] it was 15.5 µM; in experiment [5] it was 16.4 µM; in experiment [6], 10.4 µM. Also, the figures for the GI50 in experiment [10], in experiment [7] and in experiment [8] were 15.7 µM, 14.9 µM and 11.8 µM, respectively. The TGI in experiment [1] stood at 28.5 µM; in experiment [2], 30.7 µM; in experiment [3] it was 28.1 µM; in [4], 29.5 µM; in experiment [5], 30.4 µM; in experiment [6], 24 µM. In addition, the TGI in [10] came out at 30.2 µM; in experiment [7] it was 29.3 µM; in experiment [8] it was 28.1 µM.

For `COc1ccc2c(c1)C1OCCNC1CC2` (configuration not stated), the TGI in experiment [1], in experiment [2], in experiment [3], in experiment [4], in [5] and in experiment [9] was above 100 µM in each case. Also, the TGI in experiment [6], in [10] and in experiment [7] was above 100 µM throughout.

On to `CCCCCCCCCCCCCCCC(=O)N[C@H](/C=C/[C@H](O)CCCCCCCCCCCCC)CO`, for which the GI50 in experiment [1], in [2], in [3], in experiment [4], in experiment [5] and in experiment [6] was above 100 µM throughout. Besides, the GI50 in experiment [10], in experiment [7] and in [8] was above 100 µM each time. The TGI in experiment [1], in [2], in [3], in [4], in experiment [5] and in [6] was above 100 µM each time. Moreover, the TGI in experiment [10], in [7] and in [8] was above 100 µM throughout.

For the compound `O=c1c2cccc(F)c2sc2c(N3CCNCC3)nc3ccccc3c12`, the GI50 in [1] was 1.67 µM; in [2], 1.59 µM; in [3], 1.43 µM; in experiment [5] it was 1.39 µM; in [9], 1.35 µM; in experiment [6], 1.13 µM. For the same compound, the GI50 in experiment [10] is 1.38 µM; in experiment [7], 1.76 µM; in experiment [8] it was 1.64 µM. Also, the TGI in [1] was 3.59 µM; in experiment [2], 3.03 µM; in experiment [3] it was 3.17 µM; in experiment [5], 2.96 µM; in experiment [9], 2.73 µM; in experiment [6], 2.59 µM. The figures for the TGI in [10], in experiment [7] and in experiment [8] were 3.1 µM, 3.33 µM and 3.08 µM, respectively.

`CC1(C)CCCC(C)(C2CCC3(C)C2C(O)CC2C4(C)CCC(O)C(C)(C)C4C(O)CC23C)O1` (configuration not stated): the TGI in experiment [1] is 28.9 µM; in experiment [2] it was 38.4 µM; in [3], 24.4 µM; in experiment [4], 25.4 µM; in [5], 34.4 µM; in experiment [9], 17.6 µM. Moreover, the TGI in [6] turned out to be 14 µM; in experiment [7] it was 24.7 µM; in [8], 26 µM.

In the case of `CCN(CC)CCOc1ccc(/C=C2\C[C@H]3[C@H]4CC=C5C[C@@H](O)CC[C@]5(C)[C@H]4CC[C@]3(C)[C@H]2O)cc1OC`, the GI50 in experiment [1] is 24.5 µM; in experiment [2] it was 9.44 µM; in [3], 12.8 µM; in [4] it was 5.49 µM; in experiment [5] it was 9.53 µM; in experiment [9], 7.14 µM. The GI50 in [6] is 10.9 µM; in [10], 8.89 µM; in experiment [7] it was 10.4 µM. Besides, the TGI in [1] is above 50 µM; in [2] it was 18.6 µM; in [3] it was above 50 µM; in experiment [4], 11.5 µM; in [5], 17.3 µM; in experiment [9], 15.9 µM. For the same compound, the TGI was above 50 µM in [6], 22.8 µM in [10] and 25.4 µM in experiment [7].
